pEC50, pIC50: −log10 of the molar value.
Columns and labels:
[1] = tested on: Plasmodium falciparum 3D7; assay: SYBR Green assay, Plasmodium falciparum strain 3D7; type: cell-based; conditions: P. falciparum strain 3D7, 96 h incubation, read-out: Pf EC50 strain 3D7
Human NMT1 (HsNMT1) = Human NMT1 (HsNMT1) (Homo sapiens, UniProt P30419); assay: biochemical
[2] = biological target: Plasmodium vivax (Pv) NMT (Plasmodium vivax (strain Salvador I), UniProt A5K1A2); assay: biochemical
SU-DHL-10 cells = assay: Cell cytotoxicity in SU-DHL-10 cell line (CellTiter-Glo); type: cell-based; conditions: Homo sapiens, SU-DHL10; CellTiter-Glo, 48 h; read-out: SU-DHL-10 EC50
Experimental: Assay (c): Cell Cytotoxicity in SU-DHL-10 Cell Line
Cell Culture: SU-DHL-10 (ATCC CRL-2963) were cultured in RPMI-media (ATCC, 30-2001).
Cultures were maintained by the addition of fresh medium and inoculum of 8.0×10^4 to 2.0×10^5 cells/mL. Subculturing was done when the cell density was between 1.0×10^6 and 2.0×10^6 cells/mL.
Cell seeding: 5000 cells/well were plated in 384-white clear bottom plates (Greiner, 781098) for the assay in 20 μl growth media.
Top dose: 1 mM stocks of each compound was prepared in 100% DMSO and thereafter diluted 333.33 fold in growth media to obtain 3 μM (0.3% DMSO) mid stock of each compound, from which 10 μl was added to assay wells (with 20 μl cells) for a final concentration of 1 μM (0.1% DMSO). For subsequent dose-response: 1 mM stock was diluted 3 fold in DMSO before subjecting to above dilution pattern to obtain final 0.1% DMSO concentration.
Treatment: Cells were incubated with the compounds for 48 h at 37° C. in presence of 5% CO2.
Assay Procedure: The assay plate and its contents were equilibrated at room temperature for approximately 30 minutes. CellTiter-Glo® Reagent was added equal to the volume (1;1) of cell culture medium present in each well. The contents were mixed for 5 minutes on an orbital shaker to induce cell lysis. The plate was allowed to incubate at room temperature for 10 minutes to stabilize luminescent signal. The luminescence was recorded with an integration time of 0.25 seconds in EnVision 2104 Multilabel Plate Reader (Perkin Elmer).
Calculation: % Cytotoxicity was calculated considering 100% cell death in wells treated with 0.1% TritonX.

Plasmodium vivax (Pv) NMT, sequence (A5K1A2 1-410): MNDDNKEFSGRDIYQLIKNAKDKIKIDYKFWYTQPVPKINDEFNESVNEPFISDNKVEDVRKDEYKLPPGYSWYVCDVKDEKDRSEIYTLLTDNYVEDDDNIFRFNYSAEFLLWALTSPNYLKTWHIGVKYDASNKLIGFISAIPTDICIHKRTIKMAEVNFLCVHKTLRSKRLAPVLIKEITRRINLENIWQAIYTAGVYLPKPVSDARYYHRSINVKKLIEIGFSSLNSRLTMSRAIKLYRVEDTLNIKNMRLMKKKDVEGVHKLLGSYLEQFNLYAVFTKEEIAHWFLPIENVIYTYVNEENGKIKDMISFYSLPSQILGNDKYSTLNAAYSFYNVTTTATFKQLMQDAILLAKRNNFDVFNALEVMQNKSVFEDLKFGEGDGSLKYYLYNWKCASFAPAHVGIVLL
Human NMT1 (HsNMT1), sequence (P30419 whole entry, looked up): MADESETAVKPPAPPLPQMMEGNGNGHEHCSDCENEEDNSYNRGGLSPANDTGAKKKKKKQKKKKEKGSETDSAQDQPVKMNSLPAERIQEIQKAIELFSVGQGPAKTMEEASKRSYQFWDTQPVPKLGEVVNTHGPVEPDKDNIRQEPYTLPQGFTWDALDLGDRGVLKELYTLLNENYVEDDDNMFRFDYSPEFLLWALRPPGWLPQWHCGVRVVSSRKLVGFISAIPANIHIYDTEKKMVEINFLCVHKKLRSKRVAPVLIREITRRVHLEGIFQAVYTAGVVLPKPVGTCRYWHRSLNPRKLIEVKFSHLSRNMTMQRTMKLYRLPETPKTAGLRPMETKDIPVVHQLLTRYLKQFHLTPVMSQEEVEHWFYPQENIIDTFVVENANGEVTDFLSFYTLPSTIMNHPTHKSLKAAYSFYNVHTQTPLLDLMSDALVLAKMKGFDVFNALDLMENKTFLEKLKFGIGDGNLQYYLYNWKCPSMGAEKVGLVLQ

Compound | pEC50 [1] | pIC50 (Human NMT1 (HsNMT1)) | pIC50 [2] | pEC50 (SU-DHL-10 cells)
O=C(NCc1cnc2cc(F)ccn12)C1CN(c2nc(N3CCCNCC3)ncc2Cl)C1 [Example 21] | 6.10 | 7.30 | 7.77 | 
CN(C(=O)C1CN(c2nc(N3CCNCC3)ncc2Cl)C1)C(C)(C)c1cnc2ccccn12 [Example 119, 1-(5-chloro-2-(piperazin-1-yl)pyrimidin-4-yl)-N-(2-(imidazo[1,2-a]pyridin-3-yl)propan-2-yl)-N-methylazetidine-3-carboxamide] |  |  |  | 6.03
CN1CCN(c2ncc(F)c(N3CCC(C(=O)NC(C)(C)c4cnc5ccccn45)C3)n2)CC1 (centres unmarked) [Example 64] | 6.07 | 6.72 | 7.70 | 
CC(NC(=O)C1CN(c2nc(N3CCNCC3)ncc2Cl)C1)c1cnc2ccccn12 (centres unmarked) [Example 30] | 6.02 | 7.59 | 8.07 | 
CC(C)(NC(=O)C1CN(c2nc(N3CCNCC3)ncc2F)C1)c1cnc2ccccn12 [Example 32] | 7.19 |  | 8.04 | 
COc1cnc(N2CCCN(C)CC2)nc1N1CC(C(=O)NC(C)(C)c2cnc3ccccn23)C1 [Example 62] | 7.96 | 8.30 | 8.22 | 
CN1CCCN(c2nc3c(c(N4CC(C(=O)NC(C)(C)c5cnc6ccccn56)C4)n2)CCC3)CC1 [Example 114, N-(2-(imidazo[1,2-a]pyridin-3-yl)propan-2-yl)-1-(2-(4-methyl-1,4-diazepan-1-yl)-6,7-dihydro-5H-cyclopenta[d]pyrimidin-4-yl)azetidine-3-carboxamide] |  |  |  | 7.19
CN(C(=O)C1CN(c2nc(N3CCCNCC3)ncc2Cl)C1)C(C)(C)c1cnc2ccccn12 [Example 120, 1-(5-chloro-2-(1,4-diazepan-1-yl)pyrimidin-4-yl)-N-(2-(Imidazo[1,2-a]pyridin-3-yl)propan-2-yl)-N-methylazetidine-3-carboxamide] |  |  |  | 6.26
CC1CN(c2ncc(F)c(N3CC(C(=O)NC(C)(C)c4cnc5ccccn45)C3)n2)C[C@@H](C)N1 (some centres unmarked) [Example 47] | 6.85 | 7.37 | 7.91 | 
CN(C(=O)C1CN(c2nc(N3CCNC(C)(C)C3)ncc2Cl)C1)C(C)(C)c1cnc2ccccn12 [Example 127, 1-(5-chloro-2-(3,3-dimethylpiperazin-1-yl)pyrimidin-4-yl)-N-(2-(Imidazo[1,2-a]pyridin-3-yl)propan-2-yl)-N-methylazetidine-3-carboxamide] |  |  |  | 6.22
C[C@H]1CN(c2ncc(F)c(N3CC(C(=O)NC(C)(C)c4cnc5ccccn45)C3)n2)CCN1C [Example 82, 1-{2-[(3S)-3,4-dimethylpiperazin-1-yl]-5-fluoropyrimidin-4-yl}-N-(2-{imidazo[1,2-a]pyridin-3-yl}propan-2-yl)azetidine-3-carboxamide] | 7.03 | 7.00 | 7.37 | 
CN1CCN(c2cc(N3CC(C(=O)NC(C)(C)c4cnc5ccccn45)C3)c(Cl)cn2)CC1 [Example 105, 1-[5-chloro-2-(4-methylpiperazin-1-yl)pyridin-4-yl]-N-(2-{imidazo[1,2-a]pyridin-3-yl}propan-2-yl)azetidine-3-carboxamide] | 7.74 |  |  | 
C[C@@H]1CN(c2cc(N3CC(C(=O)NC(C)(C)c4cnc5ccccn45)C3)c(Cl)cn2)CCN1C [Example 103, 1-{5-chloro-2-[(3R)-3,4-dimethylpiperazin-1-yl]pyridin-4-yl}-N-(2-{imidazo[1,2-a]pyridin-3-yl}propan-2-yl)azetidine-3-carboxamide] | 8.28 |  |  | 
CC1CN(c2ncc(Cl)c(N3CC(C(=O)NC(C)(C)c4cnc5ccccn45)C3)n2)C[C@@H](C)N1 (some centres unmarked) [Example 46] | 7.24 |  |  | 
CC1CN(c2ncc(F)c(N3CC(C(=O)NC(C)(C)c4cnc5ccccn45)C3)n2)C[C@H](C)N1 (some centres unmarked) [Example 49] | 7.24 | 7.85 | 8.08 | 
CN(c1ncc(F)c(N2CC(C(=O)NC(C)(C)c3cnc4ccccn34)C2)n1)C1CCNC1 (centres unmarked) [Example 40] | 6.60 | 6.80 | 7.74 | 

Compound | pEC50 [1] | pIC50 (Human NMT1 (HsNMT1)) | pIC50 [2] | pEC50 (SU-DHL-10 cells)
Cc1ccc2ncc(C(C)(C)NC(=O)C3CN(c4nc(N5CCN(C)[C@H](C)C5)ncc4Cl)C3)n2c1 [Example 98, 1-{5-chloro-2-[(3R)-3,4-dimethylpiperazin-1-yl]pyrimidin-4-yl}-N-(2-{6-methylimidazo[1,2-a]pyridin-3-yl}propan-2-yl)azetidine-3-carboxamide] | 8.15 | 8.27 | 8.24 | 
O=C(NCc1cnc2ccccn12)C1CN(c2nc(N3CCCNCC3)ncc2Cl)C1 [Example 5] | 5.60 |  | 7.85 | 
C[C@@H]1CN(c2ncc(Cl)c(N3CC(C(=O)NC(C)(C)c4cnc5ccccn45)C3)n2)C[C@@H](C)N1C [Example 92, 1-{5-chloro-2-[(3R,5R)-3,4,5-trimethylpiperazin-1-yl]pyrimidin-4-yl}-N-(2-{imidazo[1,2-a]pyridin-3-yl}propan-2-yl)azetidine-3-carboxamide] | 6.59 | 7.26 | 7.39 | 
C[C@@H]1CN(c2ncc(F)c(N3CCC(C(=O)NC(C)(C)c4cnc5ccccn45)C3)n2)CCN1C (stereo partly drawn) [Example 86, 1-{2-[(3R)-3,4-dimethylpiperazin-1-yl}-5-fluoropyrimidin-4-yl}-N-(2-{imidazo[1,2-a]pyridin-3-yl}propan-2-yl)pyrrolidine-3-carboxamide] | 6.70 | 7.41 | 8.15 | 
CN1CCC(N(C)c2ncc(F)c(N3CC(C(=O)NC(C)(C)c4cnc5ccccn45)C3)n2)C1 (centres unmarked) [Example 58] | 6.39 | 7.43 | 7.89 | 
C[C@H]1CN(c2ncc(F)c(N3CC(C(=O)NC(C)(C)c4cnc5ccccn45)C3)n2)CCN1 [Example 38] | 6.82 |  | 7.85 | 
C[C@@H]1CN(C)CCN1c1ncc(Cl)c(N2CC(C(=O)NC(C)(C)c3cnc4ccccn34)C2)n1 [Example 68] | 7.13 | 7.06 | 7.49 | 
C[C@@H]1CN(c2ncc(F)c(N3CC(C)(C(=O)NC(C)(C)c4cnc5ccccn45)C3)n2)CCN1C [Example 87, 1-{2-[(3R)-3,4-dimethylpiperazin-1-yl]-5-fluoropyrimidin-4-yl}-N-(2-{imidazo[1,2-a]pyridin-3-yl}propan-2-yl)-3-methylazetidine-3-carboxamide] | < 6.12 | 6.82 | 7.42 | 
C[C@@H]1CN(c2ncc(F)c(N3CC(C(=O)NC(C)(C)c4cnc5ccccn45)C3)n2)C[C@@H](C)N1C [Example 93, 1-{5-fluoro-2-[(3R,5R)-3,4,5-trimethylpiperazin-1-yl]pyrimidin-4-yl}-N-(2-{imidazo[1,2-a]pyridin-3-yl}propan-2-yl)azetidine-3-carboxamide] | 6.07 | 6.60 | 7.23 | 
Cc1ccc2ncc(C(C)(C)NC(=O)C3CN(c4nc(N5CCN(C)[C@H](C)C5)ncc4F)C3)n2c1 [Example 97, 1-{2-[(3R)-3,4-dimethylpiperazin-1-yl}-5-fluoropyrimidin-4-yl}-N-(2-{6-methylimidazo[1,2-a]pyridin-3-yl}propan-2-yl)azetidine-3-carboxamide] | 7.16 | 7.59 | 8.31 | 
COc1cnc(N2CCN(C)CC2)nc1N1CC(C(=O)NC(C)(C)c2cnc3ccccn23)C1 [Example 63] | 6.74 |  | 7.15 | 
CC1CN(c2ncc(Cl)c(N3CC(C(=O)NCc4cnc5ccccn45)C3)n2)CCN1 (centres unmarked) [Example 29] | 6.21 | 7.10 | 7.74 | 
COc1cnc(N2C[C@H](C)N(C)[C@@H](C)C2)nc1N1CC(C(=O)NC(C)(C)c2cnc3ccccn23)C1 [Example 94, N-(2-{imidazo[1,2-a]pyridin-3-yl}propan-2-yl)-1-{5-methoxy-2-[(3S,5S)-3,4,5-trimethylpiperazin-1-yl]pyrimidin-4-yl}azetidine-3-carboxamide] | 6.36 |  |  | 
C[C@H]1CN(c2ncc(Cl)c(N3CC(C(=O)NC(C)(C)c4cnc5ccccn45)C3)n2)CCN1 [Example 37] | 7.57 | 8.10 | 8.08 | 
C[C@H]1CN(c2ncc(Cl)c(N3CC(C(=O)NC(C)(C)c4cnc5ccccn45)C3)n2)CCN1C [Example 83, 1-{5-chloro-2-[(3S)-3,4-dimethylpiperazin-1-yl]pyrimidin-4-yl}-N-(2-{imidazo[1,2-a]pyridin-3-yl}propan-2-yl)azetidine-3-carboxamide] | 6.82 |  | 8.00 | 
COc1cnc(N2CCNCC2)nc1N1CC(C(=O)NC(C)(C)c2cnc3ccccn23)C1 [Example 34] | 6.85 |  | 8.04 | 

Source: patent US20240166643A1, “IMIDAZO[1,2-A]PYRIDINE COMPOUNDS AND THEIR USE IN THERAPY” (Imperial College Innovations Limited, priority 2020, published 2024)
